Reference: patent publication EP0136569A2, “Isoflavone derivatives, their production and use” (Takeda Chemical Industries, Ltd., priority 1983, dated 1985)

System: young oophorectomized rats
Test: Estrogenic activity (uterine wet weight) in young oophorectomized rats
Format: in vivo, Sprague-Dawley rats
From the text: Test Example 1 Estrogenic activity of 7-isopropoxy-3-(4-hydroxyphenyl)-4H-1-benzopyran-4-one (hereinafter referred to as compound A) in young oophorectomized rats Sprague-Dawley rats, 33 days old and 11 days after oophorectomy for elimination of endogenous estrogenic activity, were used in groups of 6 to 7 animals. Compound A was suspended in a 1% aqueous solution of hydroxypropyl-cellulose and administered orally for 3 days, while as a representative example of the conventional estrogen drug, estrone was dissolved in sesame oil and administered subcutaneously for 3 days. On the fourth day, each animal was autopsied and its uterine wet weight was recorded.

Row | SMILES | Uterine wet weight (mg ± S.D.) (daily dose 6.25 mg/kg, orally for 3 days, autopsy on fourth day, n=7) | Uterine wet weight (mg ± S.D.) (daily dose 25 mg/kg, orally for 3 days, autopsy on fourth day, n=7) | Uterine wet weight (mg ± S.D.) (daily dose 100 mg/kg, orally for 3 days, autopsy on fourth day, n=7, significant vs control (P<0.01)) | Uterine wet weight (mg ± S.D.) (daily dose 400 mg/kg, orally for 3 days, autopsy on fourth day, n=6, significant vs control (P<0.01)) | uterine weight increasing effect, dose-response curve (orally for 3 days, daily dose levels of 100 mg/kg and 400 mg/kg) | Uterine wet weight (mg ± S.D.) (daily dose 0.0025 mg/kg, subcutaneously for 3 days in sesame oil, n=7, significant vs control (P<0.01)) | Uterine wet weight (mg ± S.D.) (daily dose 0.005 mg/kg, subcutaneously for 3 days in sesame oil, n=7, significant vs control (P<0.01)) | Uterine wet weight (mg ± S.D.) (daily dose 0.01 mg/kg, subcutaneously for 3 days in sesame oil, n=7, significant vs control (P<0.01))
1 | CC(C)Oc1ccc2c(=O)c(-c3ccc(O)cc3)coc2c1 [Compound A, 7-isopropoxy-3-(4-hydroxyphenyl)-4H-1-benzopyran-4-one] | 32.6 ± 1.2 mg | 39.2 ± 2.3 mg | 56.3 ± 3.7 mg | 83.0 ± 6.9 mg | uterine weight increasing effect with a dose-response curve of moderate gradient |  |  | 
2 | C[C@]12CC[C@@H]3c4ccc(O)cc4CC[C@H]3[C@@H]1CCC2=O [Estrone, estrone, reference compound] |  |  |  |  |  | 121.1 ± 7.0 mg | 200.5 ± 14.3 mg | 247.2 ± 14.6 mg
